Values quoted from earlier work in US8192775B2, “Crystallization of polyol compositions, crystalline polyol composition product and use thereof” (Danisco Sweeteners Oy, priority 2002, dated 2012).

Settings: water at 20° C.

solubility in water | Compound
62 % (w/w) | OC[C@@H](O)[C@@H](O[C@H]1O[C@H](CO)[C@@H](O)[C@H](O)[C@H]1O)[C@H](O)[C@@H](O)CO [Maltitol]
63 (w/w) | OC[C@@H](O)[C@H](O)[C@@H](O)CO [Xylitol]
